Here are results for 3 molecules from patent US20100152200A1, “[…] USES THEREOF” (priority 2008, published 2010).

Molecules are shown by their SMILES. Like-named read-outs stand apart in the source and are kept apart here.

The subject of one data set is WEEV replicon pWR-LUC. In words: organism not typed. Type of data set: cell-based.
Another data set has as its system BSR-T7/5 cells. Nature of the data set: Toxicity studies (MTT or Alamar Blue cell viability) in the pWR-LUC:BSR-T7/5 system. To be noted: for toxicity:activity (T:A) ratio (CC50/IC1050): pWR-LUC:BSR-T7/5 system. A general note: Resazurin is reduced to fluorescent resorufin, in cell work by metabolically active cells.
The next data set deals with VEEV replicon. Type of data set: cell-based.
In data set [1] the test system is FMV. Type of data set: cell-based, Fort Morgan virus (FMV) strain CM4-146.
For data set [2], the system named is FMV.
The test system of another data set is EEEV replicon. Type of data set: cell-based.
The subject of a further data set is SINV. The conditions noted are these: 12.5 µM.
For data set [3], the system named is FMV. Type of data set: cell-based, Fort Morgan virus (FMV) strain CM4-146. The source holds these as a separate data set.
The next data set relates to WEEV. Type of data set: cell-based, WEEV strain Cba87.

For `COc1c(C)c2c(c(O)c1C/C=C(\C)CCC(=O)O)C(=O)OC2` [mycophenolic acid], in the data set on WEEV replicon pWR-LUC, the “suppression of fLUC expression” value is recorded as “approximately 80%”.
`NC(=O)c1ncn([C@@H]2O[C@H](CO)[C@@H](O)[C@H]2O)n1` [ribavirin]: the “suppression of fLUC expression” value in the data set with WEEV replicon pWR-LUC is reported as “approximately 80%”. The molecule further displayed an IC50 in the data set with WEEV replicon pWR-LUC (BSR-T7/5) of 16 µM. The “toxicity:activity (T:A) ratio (CC50/IC1050)” value in the data set with BSR-T7/5 cells amounted to 19.
On to `O=C(NCc1ccco1)C1CCN(C(=O)c2cc3sccc3n2Cc2ccc(F)cc2)CC1` [Compound 32091], for which the “activity against VEEV replicon (in words)” value in the data set on VEEV replicon was “broad activity”. Further, the “reduction of accumulation of viral RNAs encoding nsP2 or E1” value with FMV [1] and in the data set on WEEV was 80-90% in each case. In addition, the “concentration effectively suppressing FMV-induced CPE (lowest concentration tested)” value with FMV [2] was at most 3 µM. The “cell viability of FMV-infected cells” value in the data set with FMV [2] (12.5 µM) is 70%. In addition, the “activity against EEEV replicon (in words)” value in the data set on EEEV replicon is listed as “broad activity”. Further, the “cell viability of SINV-infected cells” value in the data set with SINV is recorded as 50%. The 50% inhibitory concentration (IC50) in the data set with WEEV replicon pWR-LUC (read-out: IC50) turned out to be 9.3 µM. In the data set with FMV [3], the “suppression of infectious FMV production” value is listed as above 90%. Moreover, the “cytotoxicity (in words)” value with BSR-T7/5 cells (FIG. 2 dose-response, BSR-T7/5 cells transfected with pWR-LUC) was “minimal cytotoxicity”. Also, the “toxicity:activity (T:A) ratio (CC50/IC1050)” value with BSR-T7/5 cells is “greater than 20”.

In general, IC50 refers to the point on the concentration scale where inhibition reaches its midpoint.
